pIC50: −log10 of the molar value.

Our source for the IC50 values is patent US20220144854A1, “MACROCYCLIC COMPOUNDS” (ZENO MANAGEMENT, INC., priority 2019, published 2022).

For one test, the target named is Mcl-1 (Homo sapiens, UniProt Q07820). Kind of test: Mcl-1 Homogeneous Time Resolved Fluorescence (HTRF) binding assay. As to conditions: HTRF; 4 nM Mcl-1, 100 nM FAM-Bak peptide; 10-dose, singlicate; read-out: Mcl-1 IC50.
The subject of test [1] is NCI-H929 (ATCC CRL-9068) cells. Kind of test: NCI-H929 cell proliferation assay (CellTiter-Glo). Type of test: cell-based. Particulars: 72 h of compound treatment. The method, then:
Cell proliferation was measured using the CellTiter-Glo® Luminescent Cell Viability Assay. The assay involved the addition of a single reagent (CellTiter-Glo® Reagent) directly to cells cultured in serum-supplemented medium.
Each compound evaluated was prepared as a DMSO stock solution (10 mM). Compounds were tested in duplicate on each plate, with a 10-point serial dilution curve (1:3 dilution). Compound treatment ([…]) was added from the compound dilution plate to the cell plate. The highest compound concentration was 10 μM (final), with a 0.1% final DMSO concentration. Plates were then incubated at 37° C., 5% CO2. After 72 h of compound treatment, cell plates were equilibrated at rt for approximately 30 mins. An equi-volume amount of CellTiter-Glo® Reagent (40 μL) was added to each well. Plates were mixed for 2 mins on an orbital shaker to induce cell lysis and then incubated at rt for 10 mins to stabilize the luminescent signal. Luminescence was recorded using an Envision plate reader according to CellTiter-Glo protocol. IC50 of each compound was calculated using GraphPad Prism by nonlinear regression analysis.
In general terms: Cellular ATP, detected with luciferase, serves as a proxy for viable cell number.

Mcl-1, sequence (Q07820 whole entry): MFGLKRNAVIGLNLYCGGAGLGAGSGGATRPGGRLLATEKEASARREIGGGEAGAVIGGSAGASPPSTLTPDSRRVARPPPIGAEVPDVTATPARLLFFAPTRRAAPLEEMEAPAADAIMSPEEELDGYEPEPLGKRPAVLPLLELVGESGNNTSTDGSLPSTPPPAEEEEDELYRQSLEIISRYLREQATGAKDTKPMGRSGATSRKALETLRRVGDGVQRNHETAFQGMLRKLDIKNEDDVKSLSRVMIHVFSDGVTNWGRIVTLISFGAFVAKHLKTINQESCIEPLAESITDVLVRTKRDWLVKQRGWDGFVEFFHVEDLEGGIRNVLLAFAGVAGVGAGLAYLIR

By pIC50 is commonly meant the IC50 on a negative log10 scale, so that one unit is a factor of ten. For `Cn1nc2cc1CSc1cc(c3ccccc3c1)OCCCc1c(C(=O)O)n(C)c3c(c(Cl)ccc13)-c1c(nn3c1CSC3)CSC2` (single isomer, unassigned) [Example 5A, (Z)-1^6-Chloro-1^1,6^1-dimethyl-1^1H,2^4H,2^6H,6^1H-10-oxa-4,8-dithia-2(3,2)-pyrazolo[1,5-c]thiazola-1(7,3)-indola-6(3,5)-pyrazola-9(3,1)-naphthalenacyclotridecaphane-1^2-carboxylic acid], the pIC50 at Mcl-1 is greater than 8.00; in test [1], 6.00 to 7.00.

As to `Cn1nc2cc1CSc1cc(c3ccccc3c1)OCCCc1c(C(=O)O)n(C)c3c(c(Cl)ccc13)-c1c(nn3c1COCC3)CSC2` (single isomer, unassigned) [Example 4A, (Z)-1^6-Chloro-1^1,6^1-dimethyl-2^6,2^7-dihydro-1^1H,2^4H,6^1H-10-oxa-4,8-dithia-2(3,2)-pyrazolo[5,1-c][1,4]oxazina-1(7,3)-indola-6(3,5)-pyrazola-9(3,1)-naphthalenacyclotridecaphane-1^2-carboxylic acid], the pIC50 at Mcl-1 is greater than 8.00; in test [1] it was 6.00 to 7.00.

Take `Cn1nc2cc1CSc1cc(c3ccccc3c1)OCCCc1c(C(=O)O)n(C)c3c(c(Cl)ccc13)-c1c(nn3c1CCC3)CSC2` (single isomer, unassigned) [Example 3B, (Z)-1^6-Chloro-1^1,6^1-dimethyl-2^5,2^6-dihydro-1^1H,2^4H,6^1H-10-oxa-4,8-dithia-1(7,3)-indola-2(3,2)-pyrrolo[1,2-b]pyrazola-6(3,5)-pyrazola-9(3,1)-naphthalenacyclotridecaphane-1^2-carboxylic acid]: the values for the negative-log IC50 (pIC50) (on Mcl-1; in test [1]) were 7.00 to 8.00 and less than 6.00, respectively.

As for `Cc1nn(C)c2c1-c1c(F)ccc3c(c(C(=O)O)n(C)c13)CCCOc1cc(cc3ccccc13)SCc1cc(nn1C(C)C)CSC2` (single isomer, unassigned) [Example 16B, (Z)-1^6-Fluoro-6^1-isopropyl-1^1,2^1,2^3-trimethyl-1^1H,2^1H,6^1H-10-oxa-4,8-dithia-1(7,3)-indola-2(4,5),6(3,5)-dipyrazola-9(3,1)-naphthalenacyclotridecaphane-1^2-carboxylic acid], in test [1], the pIC50 was less than 6.00.

In test [1] (Homo sapiens, NCI-H929, 72 h), `Cc1[nH]nc2c1-c1c(Cl)ccc3c(c(C(=O)O)n(C)c13)CCCOc1cc(cc3ccccc13)SCc1cc(nn1C(C)C)CSC2` [Example 9B, (Z)-1^6-Chloro-6^1-isopropyl-1^1,2^5-dimethyl-1^1H,2^1H,6^1H-10-oxa-4,8-dithia-1(7,3)-indola-2(4,3),6(3,5)-dipyrazola-9(3,1)-naphthalenacyclotridecaphane-1^2-carboxylic acid] showed a negative logarithm of the IC50 (pIC50) of less than 6.00.

“(Z)-6^1-Ethyl-1^6-fluoro-1^1,2^1,2^3-trimethyl-1^1H,2^1H,6^1H-10-oxa-4,8-dithia-1(7,3)-indola-2(4,5),6(3,5)-dipyrazola-9(3,1)-naphthalenacyclotridecaphane-1^2-carboxylic acid [Example 15B]” showed a pIC50 in test [1] of less than 6.00.

In turn, `Cc1c2c(nn1C)CSCc1cc(n(C)n1)CSc1cc(c3ccccc3c1)OCCCc1c(C(=O)O)n(C)c3c-2c(Cl)cc(Cl)c13` [Example 13A, (Z)-1^4,1^6-dichloro-1^1,2^1,2^5,6^1-tetramethyl-1^1H,2^1H,6^1H-10-oxa-4,8-dithia-1(7,3)-indola-2(4,3),6(3,5)-dipyrazola-9(3,1)-naphthalenacyclotridecaphane-1^2-carboxylic acid] had a negative-log IC50 (pIC50) in test [1] of less than 6.00.

`Cc1c2c(nn1C)CSCc1cc(n(C)n1)CSc1cc(c3ccccc3c1)OCCCc1c(C(=O)O)n(C)c3c-2c(Cl)ccc13` [AZD5991, reference compound] showed a pIC50 in test [1] (Homo sapiens, NCI-H929, 72 h) greater than 7.00.

In test [1], `Cc1nn(C)c2c1-c1c(F)ccc3c(c(C(=O)O)n(C)c13)CCCOc1cc(cc3ccccc13)SCc1cc(nn1CC(C)C)CSC2` (single isomer, unassigned) [Example 17B, (Z)-1^6-Fluoro-6^1-isobutyl-1^1,2^1,2^3-trimethyl-1^1H,2^1H,6^1H-10-oxa-4,8-dithia-1(7,3)-indola-2(4,5),6(3,5)-dipyrazola-9(3,1)-naphthalenacyclotridecaphane-1^2-carboxylic acid] gave a pIC50 of 6.00 to 7.00.

On to `COc1ccc(Cn2nc3c(c2C)-c2c(Cl)ccc4c(c(C(=O)O)n(C)c24)CCCOc2cc(cc4ccccc24)SCc2cc(nn2C(C)C)CSC3)cc1` (single isomer, unassigned) [Example 8B, (Z)-1^6-Chloro-6^1-isopropyl-2^1-(4-methoxybenzyl)-1^1,2^5-dimethyl-1^1H,2^1H,6^1H-10-oxa-4,8-dithia-1(7,3)-indola-2(4,3),6(3,5)-dipyrazola-9(3,1)-naphthalenacyclotridecaphane-1^2-carboxylic acid], for which the pIC50 in test [1] was 6.00 to 7.00.

Consider `Cc1[nH]nc2c1-c1c(F)ccc3c(c(C(=O)O)n(C)c13)CCCOc1cc(cc3ccccc13)SCc1cc(nn1C(C)C)CSC2` (single isomer, unassigned) [Example 7B, (Z)-1^6-Fluoro-6^1-isopropyl-1^1,2^5-dimethyl-1^1H,2^1H,6^1H-10-oxa-4,8-dithia-1(7,3)-indola-2(4,3),6(3,5)-dipyrazola-9(3,1)-naphthalenacyclotridecaphane-1^2-carboxylic acid], for which the negative-log IC50 (pIC50) on Mcl-1 is greater than 8.00.

Consider `Cc1c2c(nn1C)CSCc1cc(n(C)n1)CSc1cc(c3cc(Cl)ccc3c1)OCCCc1c(C(=O)O)n(C)c3c-2c(Cl)ccc13` [Example 12A, (Z)-1^6,9^7-Dichloro-1^1,2^1,2^5,6^1-tetramethyl-1^1H,2^1H,6^1H-10-oxa-4,8-dithia-1(7,3)-indola-2(4,3),6(3,5)-dipyrazola-9(3,1)-naphthalenacyclotridecaphane-1^2-carboxylic acid], for which the negative logarithm of the IC50 (pIC50) in test [1] was 6.00 to 7.00.

In test [1], `Cc1c2c(nn1C)CSCc1cc([nH]n1)CSc1cc(c3ccccc3c1)OCCCc1c(C(=O)O)n(C)c3c-2c(Cl)ccc13` [Example 11A, (Z)-1^6-Chloro-1^1,2^1,2^5-trimethyl-1^1H,2^1H,6^1H-10-oxa-4,8-dithia-1(7,3)-indola-2(4,3),6(3,5)-dipyrazola-9(3,1)-naphthalenacyclotridecaphane-1^2-carboxylic acid] had a pIC50 of less than 6.00.

In turn, “(Z)-2^5-(tert-Butoxycarbonyl)-1^6-chloro-1^1,6^1-dimethyl-2^4,2^5,2^6,2^7-tetrahydro-1^1H,6^1H-10-oxa-4,8-dithia-2(3,2)-pyrazolo[1,5-a]pyrazina-1(7,3)-indola-6(3,5)-pyrazola-9(3,1)-naphthalenacyclotridecaphane-1^2-carboxylic acid [Example 22A]” had a negative logarithm of the IC50 (pIC50) in test [1] of 6.00 to 7.00.

For `CN1CCn2nc3c(c2C1)-c1c(Cl)ccc2c(c(C(=O)O)n(C)c12)CCCOc1cc(cc2ccccc12)SCc1cc(nn1C)CSC3` [Example 25A, (Z)-1^6-chloro-1^1,2^5,6^1-trimethyl-2^4,2^5,2^6,2^7-tetrahydro-1^1H,6^1H-10-oxa-4,8-dithia-2(3,2)-pyrazolo[1,5-a]pyrazina-1(7,3)-indola-6(3,5)-pyrazola-9(3,1)-naphthalenacyclotridecaphane-1^2-carboxylic acid], in test [1] (Homo sapiens, NCI-H929, 72 h), the pIC50 was 6.00 to 7.00.

As for `Cn1nc2cc1CCc1cc(c3ccccc3c1)OCCCc1c(C(=O)O)n(C)c3c(c(Cl)ccc13)-c1c(nn3c1CCCC3)CNC2` (single isomer, unassigned) [Example 27B, (Z)-1^6-Chloro-1^1,6^1-dimethyl-2^4,2^5,2^6,2^7-tetrahydro-1^1H,6^1H-10-oxa-4-aza-2(3,2)-pyrazolo[1,5-a]pyridina-1(7,3)-indola-6(3,5)-pyrazola-9(3,1)-naphthalenacyclotridecaphane-1^2-carboxylic acid], in test [1], the negative logarithm of the IC50 (pIC50) is less than 6.00.

On to `CO[C@H]1/C=C/C[C@H](C)[C@@H](C)S(=O)(=O)NC(=O)c2ccc3c(c2)N(C[C@@H]2CC[C@H]21)C[C@@]1(CCCc2cc(Cl)ccc21)CO3` [AMG176, reference compound], for which the pIC50 in test [1] (Homo sapiens, NCI-H929, 72 h) is 6.00 to 7.00.

`COc1ccc(Cn2nc3c(c2C)-c2c(Cl)ccc4c(c(C(=O)O)n(C)c24)CCCOc2cc(cc4ccccc24)SCc2cc(nn2C(C)C)CSC3)cc1` (single isomer, unassigned) [Example 8A, (Z)-1^6-Chloro-6^1-isopropyl-2^1-(4-methoxybenzyl)-1^1,2^5-dimethyl-1^1H,2^1H,6^1H-10-oxa-4,8-dithia-1(7,3)-indola-2(4,3),6(3,5)-dipyrazola-9(3,1)-naphthalenacyclotridecaphane-1^2-carboxylic acid] showed a pIC50 in test [1] of less than 6.00.

On to “(Z)-1^6-Fluoro-6^1-isobutyl-1^1,2^1,2^3-trimethyl-1^1H,2^1H,6^1H-10-oxa-4,8-dithia-1(7,3)-indola-2(4,5),6(3,5)-dipyrazola-9(3,1)-naphthalenacyclotridecaphane-1^2-carboxylic acid [Example 18B]”, for which, in test [1], the pIC50 was 6.00 to 7.00.

For the compound “(Z)-2^5-(tert-Butoxycarbonyl)-1^6-chloro-1^1,6^1-dimethyl-2^4,2^5,2^6,2^7-tetrahydro-1^1H,6^1H-10-oxa-4,8-dithia-2(3,2)-pyrazolo[1,5-a]pyrazina-1(7,3)-indola-6(3,5)-pyrazola-9(3,1)-naphthalenacyclotridecaphane-1^2-carboxylic acid [Example 22B]”, in test [1], the pIC50 is less than 6.00.
